Literature values, collected in patent US20030073219A1, “Crystal structure” (priority 2001, published 2003).

Target: ApbA protein (ketopantoate reductase) (Salmonella typhimurium, UniProt P37402)
Conditions: purified ApbA protein from S. typhimurium; substrate/cofactor KM; read-out: apparent KM

ApbA protein (ketopantoate reductase), sequence (P37402 whole entry): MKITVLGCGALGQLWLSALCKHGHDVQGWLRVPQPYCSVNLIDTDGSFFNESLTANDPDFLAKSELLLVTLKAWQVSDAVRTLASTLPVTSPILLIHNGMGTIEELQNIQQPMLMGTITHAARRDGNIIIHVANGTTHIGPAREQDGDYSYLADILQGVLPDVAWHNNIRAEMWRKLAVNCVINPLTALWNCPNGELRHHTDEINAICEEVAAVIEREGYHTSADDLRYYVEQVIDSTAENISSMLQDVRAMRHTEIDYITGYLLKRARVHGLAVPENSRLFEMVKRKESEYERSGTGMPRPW

SMILES	Km [µM]
NC(=O)C1=CN([C@@H]2O[C@H](COP(=O)(O)OP(=O)(O)OC[C@H]3O[C@@H](n4cnc5c(N)ncnc54)[C@H](OP(=O)(O)O)[C@@H]3O)[C@@H](O)[C@H]2O)C=CC1 [NADPH]	770
CC(C)(CO)C(=O)C(=O)O [ketopantoate]	740
